Calls of active or inactive are those of the source.
Assays:
[1] = Luminescence-based cell-based high throughput dose response assay to identify activators of the DAF-12 from the parasite S. stercoralis (ssDAF-12).; type: functional
[2] = biological target: T1, Oxysterols receptor LXR-beta (Homo sapiens, UniProt P55055); assay: LXR agonists, Gal4 luciferase reporter, dose response, counter-screen for ssDAF-12 agonist project, cell-based, luminescence, HEK293, S. stercoralis campaign (AID 720737); type: functional; conditions: read-out: IC50 (the source's name)
T1 sequence (P55055 whole entry): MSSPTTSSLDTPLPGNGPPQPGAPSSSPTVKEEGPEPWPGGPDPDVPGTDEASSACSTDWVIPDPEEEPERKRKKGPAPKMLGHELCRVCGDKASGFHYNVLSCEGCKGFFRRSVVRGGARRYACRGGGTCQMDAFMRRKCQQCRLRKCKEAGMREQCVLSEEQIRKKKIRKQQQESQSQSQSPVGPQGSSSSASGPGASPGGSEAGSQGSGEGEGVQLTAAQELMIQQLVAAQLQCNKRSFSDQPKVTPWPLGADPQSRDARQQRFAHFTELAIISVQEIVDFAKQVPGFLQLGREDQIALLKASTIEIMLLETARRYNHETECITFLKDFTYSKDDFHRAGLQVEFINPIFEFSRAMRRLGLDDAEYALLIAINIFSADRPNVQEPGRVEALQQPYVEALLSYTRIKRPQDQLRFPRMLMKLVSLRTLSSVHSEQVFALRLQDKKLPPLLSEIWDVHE

Bcl-2-related protein A1 [3] = biological target: T2, Bcl-2-related protein A1 (Mus musculus, UniProt Q07440); assay: small-molecule antagonists of Bfl-1/BH3 interaction – biochemical, TR-FRET, mouse Bfl-1, confirmation (AID 621);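 further: TR-FRET binding of GST-Bfl-1 to FITC-labelled Bid peptide via terbium antibody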
T2 sequence (Q07440 whole entry): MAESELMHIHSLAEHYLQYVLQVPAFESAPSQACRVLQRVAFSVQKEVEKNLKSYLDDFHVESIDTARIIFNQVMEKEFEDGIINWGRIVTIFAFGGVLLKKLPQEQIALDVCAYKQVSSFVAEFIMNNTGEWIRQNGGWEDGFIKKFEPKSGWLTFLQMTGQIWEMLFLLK

Bcl-2-related protein A1 [4] = biological target: T2, Bcl-2-related protein A1; assay: Bfl-1 binding inhibitors, SAR follow-up, biochemical, fluorescence polarization (AID 1070)
Cytochrome P450 2C9 = Cytochrome P450 2C9 (Homo sapiens, UniProt P11712)
Caspase-6 = biological target: T3, Caspase-6 (Homo sapiens, UniProt P55212); assay: inhibition of CASP6 peptide cleavage – biochemical, VEID-R110 fluorescence, cherry-pick, dose response (AID 720632)
T3 sequence (P55212 whole entry): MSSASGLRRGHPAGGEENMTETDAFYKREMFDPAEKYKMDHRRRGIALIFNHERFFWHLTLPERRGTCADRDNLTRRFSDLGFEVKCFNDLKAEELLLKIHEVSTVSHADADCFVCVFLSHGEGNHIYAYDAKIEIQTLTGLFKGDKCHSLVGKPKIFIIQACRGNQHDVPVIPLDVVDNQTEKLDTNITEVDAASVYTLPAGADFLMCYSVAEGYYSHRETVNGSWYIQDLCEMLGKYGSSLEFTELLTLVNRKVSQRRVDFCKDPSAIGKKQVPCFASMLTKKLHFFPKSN

[5] = biological target: T4, Histone-lysine N-methyltransferase NSD2 (Homo sapiens, UniProt O96028); type: biochemical
T4 sequence (O96028 whole entry): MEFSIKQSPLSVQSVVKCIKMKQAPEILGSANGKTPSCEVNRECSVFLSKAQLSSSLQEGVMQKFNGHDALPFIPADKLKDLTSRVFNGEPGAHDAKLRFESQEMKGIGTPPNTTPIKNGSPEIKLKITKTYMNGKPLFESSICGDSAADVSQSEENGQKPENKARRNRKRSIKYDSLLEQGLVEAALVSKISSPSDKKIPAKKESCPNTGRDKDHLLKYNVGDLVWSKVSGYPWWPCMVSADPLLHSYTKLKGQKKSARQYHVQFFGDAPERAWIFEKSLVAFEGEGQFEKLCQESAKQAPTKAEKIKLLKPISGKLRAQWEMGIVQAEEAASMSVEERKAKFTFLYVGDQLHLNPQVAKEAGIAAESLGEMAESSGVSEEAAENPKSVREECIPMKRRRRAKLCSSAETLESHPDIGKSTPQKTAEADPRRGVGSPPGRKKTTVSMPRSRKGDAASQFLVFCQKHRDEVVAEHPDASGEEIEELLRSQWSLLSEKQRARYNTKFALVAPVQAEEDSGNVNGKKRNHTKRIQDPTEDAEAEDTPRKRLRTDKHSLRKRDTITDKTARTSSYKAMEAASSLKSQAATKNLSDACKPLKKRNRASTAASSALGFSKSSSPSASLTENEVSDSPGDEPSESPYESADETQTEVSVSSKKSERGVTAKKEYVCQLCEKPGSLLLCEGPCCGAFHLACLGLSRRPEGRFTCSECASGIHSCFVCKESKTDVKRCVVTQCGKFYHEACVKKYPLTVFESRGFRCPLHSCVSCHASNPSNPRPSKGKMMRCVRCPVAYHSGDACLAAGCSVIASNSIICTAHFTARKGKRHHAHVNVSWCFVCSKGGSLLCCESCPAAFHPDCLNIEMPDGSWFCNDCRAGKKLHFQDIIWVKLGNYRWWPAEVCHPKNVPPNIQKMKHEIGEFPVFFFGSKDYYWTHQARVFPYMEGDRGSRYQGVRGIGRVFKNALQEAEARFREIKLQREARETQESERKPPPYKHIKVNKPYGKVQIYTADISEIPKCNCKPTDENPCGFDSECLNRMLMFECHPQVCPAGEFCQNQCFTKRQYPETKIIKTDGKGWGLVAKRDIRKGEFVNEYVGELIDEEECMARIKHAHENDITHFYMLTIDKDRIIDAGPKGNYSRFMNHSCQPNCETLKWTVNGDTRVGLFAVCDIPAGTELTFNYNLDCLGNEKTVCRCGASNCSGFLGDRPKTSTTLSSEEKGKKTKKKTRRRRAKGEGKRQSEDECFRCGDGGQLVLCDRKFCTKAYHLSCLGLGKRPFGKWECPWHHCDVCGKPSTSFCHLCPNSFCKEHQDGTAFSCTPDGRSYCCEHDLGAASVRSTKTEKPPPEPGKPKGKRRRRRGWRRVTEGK

Cytochrome P450 2C19 = Cytochrome P450 2C19 (Homo sapiens, UniProt P33261); assay: Cytochrome panel assay with activity outcomes. Panel member name: p450-cyp2c19 Compounds with AC50 equal or less than 10 uM are considered active; type: functional; conditions: read-out: AC50
Galanin receptor type 3 = biological target: T5, Galanin receptor type 3 (Homo sapiens, UniProt O60755); assay: Fluorescence-based cell-based primary high throughput dose response assay to identify antagonists of the Galanin Receptor 3 (GalR3).; type: functional
T5 sequence (O60755 whole entry): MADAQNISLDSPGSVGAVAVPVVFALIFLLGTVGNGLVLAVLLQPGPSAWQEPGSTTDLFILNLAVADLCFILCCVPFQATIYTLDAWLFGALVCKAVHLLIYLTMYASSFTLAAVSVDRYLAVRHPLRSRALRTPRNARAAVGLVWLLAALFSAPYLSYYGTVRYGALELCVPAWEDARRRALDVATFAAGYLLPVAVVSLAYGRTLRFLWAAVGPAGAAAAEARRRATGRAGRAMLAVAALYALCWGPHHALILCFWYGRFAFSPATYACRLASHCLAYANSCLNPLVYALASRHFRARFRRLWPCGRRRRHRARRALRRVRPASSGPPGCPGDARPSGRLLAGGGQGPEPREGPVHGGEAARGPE

cells = type: functional, cell-based; conditions: HEK-CNG
INS1 = assay: INS-1E survival protection against cytokine death – cell-based, luminescence, retest, dose response (AID 449756); type: functional; conditions: Rattus norvegicus;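 further: cell death triggered by IL-1 beta plus TNF-alpha plus IFN-gamma mixture; protective hits raise ATP signal compared with cytokine alone wells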
[6] = biological target: T6, COUP transcription factor 2 (Homo sapiens, UniProt P24468); assay: Luminescence-based cell-based high throughput dose response assay to identify inhibitors of COUP-TFII (NR2F2).; type: functional;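 further: HEK293 cells transiently cotransfected with COUP-TFII expression vector and reporter; luciferase reporter luminescence driven by COUP-TFII from the pX2-168 reporter plasmid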
T6 sequence (P24468 whole entry): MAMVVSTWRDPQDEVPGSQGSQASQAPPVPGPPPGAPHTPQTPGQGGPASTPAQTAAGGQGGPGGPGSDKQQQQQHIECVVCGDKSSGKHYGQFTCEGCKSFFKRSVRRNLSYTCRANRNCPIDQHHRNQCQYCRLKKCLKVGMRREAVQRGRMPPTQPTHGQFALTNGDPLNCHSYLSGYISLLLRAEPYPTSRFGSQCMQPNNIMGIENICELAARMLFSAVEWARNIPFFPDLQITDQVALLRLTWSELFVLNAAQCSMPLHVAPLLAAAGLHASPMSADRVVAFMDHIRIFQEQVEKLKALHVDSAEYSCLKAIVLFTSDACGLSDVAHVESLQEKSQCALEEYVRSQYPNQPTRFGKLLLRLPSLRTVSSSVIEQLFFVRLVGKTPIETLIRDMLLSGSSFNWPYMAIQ

[7] = biological target: Peroxisome proliferator-activated receptor gamma/Nuclear receptor corepressor 2 (Homo sapiens, UniProt P37231+Q9Y618); assay: Counterscreen for NR2E3 inverse agonists: TR-FRET-based biochemical high throughput dose response assay to identify inverse agonists of the interaction between peroxisome proliferator-activated receptor gamma (PPARg) and nuclear receptor co-repressor 2 (NCOR2).; type: functional
[8] = biological target: Photoreceptor-specific nuclear receptor (Homo sapiens, UniProt Q9Y5X4); assay: ligands suppressing NR2E3 nuclear receptor activity – biochemical, TR-FRET, dose response (AID 463256); type: functional
[9] = non-specific 3'UTR reporter inhibition in Clone20-Shn3RL – cell-based, Renilla luciferase, cherry-picked, counter-screen for Shn3 inhibitor project, dose response (AID 624133); type: functional
[10] = reduction of Shn3 3'UTR-driven luciferase in osteoblasts – cell-based, Clone20 osteoblasts, firefly luciferase, cherry-picked, dose response (AID 624132); type: functional;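 further: firefly luciferase luminescence from reporter carrying the Shn3 3'UTR in osteoblasts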
[11] = loss of viability in HepG2 cells – cell-based, CellTiter-Glo, cherry-picked, cytotoxicity control for Shn3 inhibitor project, dose response (AID 624134); type: functional
Paired box protein Pax-8 = Paired box protein Pax-8 (Homo sapiens, UniProt Q06710); assay: PAX8 transcriptional activity inhibition in RMG-I – RMG-I cells, luciferase, cherry-pick, dose response (AID 687027); type: functional, cell-based;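 further: luciferase reporter driven by Pax8 target thyroperoxidase promoter measured by SteadyGlo luminescence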
[12] = toxicity to human hepatoma HepG2 cells – cell-based, cherry-picked samples, cytotoxicity control, dose response (AID 1159577); type: functional
[13] = P. falciparum Dd2 growth inhibitors, dose response, SYBR Green, cherry-picked samples (AID 1159567); type: functional, cell-based
[14] = IGROV1 cell killing – plate reader, dry powder samples, PAX8 inhibitor project, dose response (AID 743043); type: functional, cell-based; conditions: IGROV-1
[15] = growth inhibition of replicating M. tuberculosis, dose response, counter-screen, dry powder, IC90 (AID 651617); type: functional; conditions: Mycobacterium tuberculosis
[16] = inhibitors of non-replicating M. tuberculosis, dose response, luciferase, dry powder (AID 651620); type: functional; conditions: Mycobacterium tuberculosis
[17] = inhibitors of non-replicating M. tuberculosis, dose response, luciferase, dry powder (AID 651619); type: functional; conditions: Mycobacterium tuberculosis
[18] = growth inhibition of yeast DHODH-expressing 3D7 parasites – SYBR Green, dry powder samples, dose response (AID 1159570); type: functional, cell-based;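 further: parasite growth measured after 72 hours of compound exposure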
[19] = growth inhibition of PfATP4-mutant resistant parasites – NITD609-resistant line, SYBR Green, dry powder, dose response (AID 1159571); type: functional, cell-based;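 further: parasites synchronized at ring stage by sorbitol before testing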
[20] = Dd2 malaria parasite growth inhibition potency – SYBR Green, dry powder samples, dose response (AID 1159566); type: functional, cell-based;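 further: potency for growth inhibition with lower SYBR green DNA signal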

Photoreceptor-specific nuclear receptor, sequence (Q9Y5X4 whole entry): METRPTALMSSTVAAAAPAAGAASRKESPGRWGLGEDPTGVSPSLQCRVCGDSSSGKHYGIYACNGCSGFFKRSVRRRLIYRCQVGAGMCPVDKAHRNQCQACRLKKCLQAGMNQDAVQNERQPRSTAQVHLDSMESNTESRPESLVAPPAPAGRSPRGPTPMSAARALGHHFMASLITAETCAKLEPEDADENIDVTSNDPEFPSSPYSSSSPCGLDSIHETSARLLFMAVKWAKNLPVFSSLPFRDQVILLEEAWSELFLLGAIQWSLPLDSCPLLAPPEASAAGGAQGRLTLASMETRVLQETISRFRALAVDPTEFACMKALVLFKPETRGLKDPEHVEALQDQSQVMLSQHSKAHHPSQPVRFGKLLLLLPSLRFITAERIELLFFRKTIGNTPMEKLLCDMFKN
Cytochrome P450 2C9, sequence (P11712 whole entry): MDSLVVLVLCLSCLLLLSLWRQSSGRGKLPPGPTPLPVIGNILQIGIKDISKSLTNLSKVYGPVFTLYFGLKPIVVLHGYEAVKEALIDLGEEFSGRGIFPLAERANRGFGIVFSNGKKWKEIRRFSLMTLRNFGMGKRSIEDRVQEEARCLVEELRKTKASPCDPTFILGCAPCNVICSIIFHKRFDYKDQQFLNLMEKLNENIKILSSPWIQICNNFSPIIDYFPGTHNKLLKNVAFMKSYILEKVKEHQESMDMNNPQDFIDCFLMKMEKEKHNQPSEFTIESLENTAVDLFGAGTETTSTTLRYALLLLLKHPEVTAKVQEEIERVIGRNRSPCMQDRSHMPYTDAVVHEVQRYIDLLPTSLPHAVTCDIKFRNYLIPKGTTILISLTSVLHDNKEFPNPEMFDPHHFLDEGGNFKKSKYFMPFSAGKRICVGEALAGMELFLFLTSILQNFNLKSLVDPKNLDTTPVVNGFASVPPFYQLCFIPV
Cytochrome P450 2C19, sequence (P33261 whole entry): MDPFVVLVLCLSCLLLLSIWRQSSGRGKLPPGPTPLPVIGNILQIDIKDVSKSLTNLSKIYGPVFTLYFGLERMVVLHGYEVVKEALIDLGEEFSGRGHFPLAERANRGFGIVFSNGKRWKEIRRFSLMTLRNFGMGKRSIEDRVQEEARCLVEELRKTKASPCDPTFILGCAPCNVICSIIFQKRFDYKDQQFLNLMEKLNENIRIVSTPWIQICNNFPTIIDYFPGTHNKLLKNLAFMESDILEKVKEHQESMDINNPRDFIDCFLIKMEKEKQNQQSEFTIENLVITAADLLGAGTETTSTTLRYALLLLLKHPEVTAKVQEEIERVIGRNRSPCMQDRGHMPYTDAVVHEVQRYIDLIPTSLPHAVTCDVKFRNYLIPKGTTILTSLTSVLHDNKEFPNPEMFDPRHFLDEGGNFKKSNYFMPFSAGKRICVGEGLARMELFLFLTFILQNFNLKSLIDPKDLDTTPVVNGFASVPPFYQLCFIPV
Paired box protein Pax-8, sequence (Q06710 whole entry): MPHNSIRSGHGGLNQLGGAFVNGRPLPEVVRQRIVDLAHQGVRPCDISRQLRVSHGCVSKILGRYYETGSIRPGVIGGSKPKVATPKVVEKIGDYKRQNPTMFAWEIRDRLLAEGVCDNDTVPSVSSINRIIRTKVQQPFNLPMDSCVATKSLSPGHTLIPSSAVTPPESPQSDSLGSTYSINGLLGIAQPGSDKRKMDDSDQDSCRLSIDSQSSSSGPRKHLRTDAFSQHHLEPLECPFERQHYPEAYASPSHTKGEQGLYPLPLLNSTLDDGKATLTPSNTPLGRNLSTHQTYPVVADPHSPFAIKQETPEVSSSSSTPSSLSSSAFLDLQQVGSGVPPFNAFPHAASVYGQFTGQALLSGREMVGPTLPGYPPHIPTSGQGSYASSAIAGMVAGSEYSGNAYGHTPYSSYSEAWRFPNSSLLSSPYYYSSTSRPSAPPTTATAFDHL
Peroxisome proliferator-activated receptor gamma/Nuclear receptor corepressor 2, sequence (P37231 whole entry): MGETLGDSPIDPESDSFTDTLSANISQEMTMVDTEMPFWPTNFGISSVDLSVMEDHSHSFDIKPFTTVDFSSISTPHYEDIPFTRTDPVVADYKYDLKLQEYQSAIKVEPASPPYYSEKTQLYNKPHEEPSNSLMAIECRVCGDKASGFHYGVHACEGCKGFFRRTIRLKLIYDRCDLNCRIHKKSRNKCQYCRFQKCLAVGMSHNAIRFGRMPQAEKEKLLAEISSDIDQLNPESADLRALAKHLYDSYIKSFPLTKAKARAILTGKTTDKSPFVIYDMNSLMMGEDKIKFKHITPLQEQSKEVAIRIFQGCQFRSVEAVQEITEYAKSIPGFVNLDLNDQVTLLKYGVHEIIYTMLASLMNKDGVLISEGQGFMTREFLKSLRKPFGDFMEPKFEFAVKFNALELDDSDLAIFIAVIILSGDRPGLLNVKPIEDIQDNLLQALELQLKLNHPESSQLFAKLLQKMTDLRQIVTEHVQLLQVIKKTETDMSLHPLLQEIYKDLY
Peroxisome proliferator-activated receptor gamma/Nuclear receptor corepressor 2, sequence (Q9Y618 whole entry): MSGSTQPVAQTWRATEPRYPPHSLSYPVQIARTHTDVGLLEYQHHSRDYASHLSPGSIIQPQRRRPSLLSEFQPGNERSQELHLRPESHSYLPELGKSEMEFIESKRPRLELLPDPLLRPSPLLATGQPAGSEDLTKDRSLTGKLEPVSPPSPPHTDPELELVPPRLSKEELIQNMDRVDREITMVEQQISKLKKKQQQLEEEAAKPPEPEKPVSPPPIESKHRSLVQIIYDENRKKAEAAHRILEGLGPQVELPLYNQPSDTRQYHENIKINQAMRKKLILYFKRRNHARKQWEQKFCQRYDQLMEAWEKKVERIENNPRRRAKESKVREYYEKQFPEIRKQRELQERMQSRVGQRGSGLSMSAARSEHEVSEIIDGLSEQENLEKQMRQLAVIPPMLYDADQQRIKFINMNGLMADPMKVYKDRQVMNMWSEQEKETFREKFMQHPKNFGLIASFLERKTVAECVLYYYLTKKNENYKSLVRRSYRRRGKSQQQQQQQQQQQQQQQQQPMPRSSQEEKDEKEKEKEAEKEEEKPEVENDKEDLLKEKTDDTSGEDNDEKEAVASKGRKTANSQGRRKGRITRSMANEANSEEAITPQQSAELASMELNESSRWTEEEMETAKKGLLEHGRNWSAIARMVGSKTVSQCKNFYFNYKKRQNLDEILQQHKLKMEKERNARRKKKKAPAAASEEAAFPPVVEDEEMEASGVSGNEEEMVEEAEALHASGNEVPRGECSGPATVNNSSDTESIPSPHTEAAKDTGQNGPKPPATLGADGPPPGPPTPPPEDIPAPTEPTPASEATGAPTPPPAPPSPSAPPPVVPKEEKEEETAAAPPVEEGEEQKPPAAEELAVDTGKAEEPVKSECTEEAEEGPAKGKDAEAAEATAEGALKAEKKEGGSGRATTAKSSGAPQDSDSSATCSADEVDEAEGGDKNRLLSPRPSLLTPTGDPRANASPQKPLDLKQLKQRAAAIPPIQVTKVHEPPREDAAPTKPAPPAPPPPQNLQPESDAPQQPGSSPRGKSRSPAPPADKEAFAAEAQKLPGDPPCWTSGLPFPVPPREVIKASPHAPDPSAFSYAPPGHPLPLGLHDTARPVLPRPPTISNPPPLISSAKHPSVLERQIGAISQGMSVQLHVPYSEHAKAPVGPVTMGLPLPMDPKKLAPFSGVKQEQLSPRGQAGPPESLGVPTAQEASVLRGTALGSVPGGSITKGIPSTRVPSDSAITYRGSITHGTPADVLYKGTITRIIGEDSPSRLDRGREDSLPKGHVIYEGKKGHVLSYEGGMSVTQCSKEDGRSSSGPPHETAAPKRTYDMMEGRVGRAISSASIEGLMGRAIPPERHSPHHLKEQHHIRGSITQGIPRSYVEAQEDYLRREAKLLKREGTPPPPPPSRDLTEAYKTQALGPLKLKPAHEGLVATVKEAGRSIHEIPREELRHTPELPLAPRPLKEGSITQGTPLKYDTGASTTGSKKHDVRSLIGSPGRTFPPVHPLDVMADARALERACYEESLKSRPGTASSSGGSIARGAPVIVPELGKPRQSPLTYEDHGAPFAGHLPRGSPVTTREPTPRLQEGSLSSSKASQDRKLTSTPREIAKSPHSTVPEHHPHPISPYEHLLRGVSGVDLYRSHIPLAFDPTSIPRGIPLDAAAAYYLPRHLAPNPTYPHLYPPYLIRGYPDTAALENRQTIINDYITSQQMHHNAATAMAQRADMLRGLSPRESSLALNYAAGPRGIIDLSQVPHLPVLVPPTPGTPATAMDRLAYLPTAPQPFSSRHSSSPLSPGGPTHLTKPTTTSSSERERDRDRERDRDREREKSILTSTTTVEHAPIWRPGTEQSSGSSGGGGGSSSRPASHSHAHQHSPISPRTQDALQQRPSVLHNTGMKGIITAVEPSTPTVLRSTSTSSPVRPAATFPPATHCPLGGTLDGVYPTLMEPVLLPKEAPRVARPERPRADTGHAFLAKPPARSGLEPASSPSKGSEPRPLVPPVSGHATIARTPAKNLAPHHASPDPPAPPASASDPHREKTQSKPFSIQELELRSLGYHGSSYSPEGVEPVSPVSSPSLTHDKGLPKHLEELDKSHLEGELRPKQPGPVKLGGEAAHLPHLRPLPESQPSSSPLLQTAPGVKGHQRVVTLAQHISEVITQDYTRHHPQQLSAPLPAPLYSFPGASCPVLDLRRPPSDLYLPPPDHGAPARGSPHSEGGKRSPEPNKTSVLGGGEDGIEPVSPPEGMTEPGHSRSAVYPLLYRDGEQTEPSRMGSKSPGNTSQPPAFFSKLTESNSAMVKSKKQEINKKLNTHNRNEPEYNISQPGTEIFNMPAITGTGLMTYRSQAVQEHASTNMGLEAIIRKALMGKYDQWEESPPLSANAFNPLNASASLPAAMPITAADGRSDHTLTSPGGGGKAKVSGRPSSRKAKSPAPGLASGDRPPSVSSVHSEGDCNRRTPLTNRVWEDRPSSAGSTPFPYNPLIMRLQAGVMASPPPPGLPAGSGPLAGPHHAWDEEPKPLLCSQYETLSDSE

Fc1ccc(-c2cnn3c(-c4cccs4)ccnc23)cc1
IC50 [1]: > 67.5 µM (inactive) | EC50 [2]: > 67.5 µM (inactive)

COc1ccc2nc(O)c(-c3nnn(-c4ccc(Cl)nc4)n3)cc2c1
IC50 (Bcl-2-related protein A1 [3]): > 100 µM (not active) | IC50 (Bcl-2-related protein A1 [4]): > 100 µM (not active)

Nc1cc(S(=O)(=O)O)cc2ccc(S(=O)(=O)O)cc12
AC50 (Cytochrome P450 2C9): 7.94 µM (inconclusive) | AC50 (Caspase-6): 45.1 µM (active) | AC50 [5]: > 20 µM (inactive) | AC50 (Cytochrome P450 2C19): 7.94 µM (inconclusive)

Cc1ccc(-n2nnc(-c3cccnc3)n2)cc1
IC50 (Bcl-2-related protein A1 [3]): > 100 µM (not active) | IC50 (Bcl-2-related protein A1 [4]): > 100 µM (not active)

O=C(O)c1ccccc1SCC(=O)N1CCc2ccccc21
IC50 [1]: > 67.5 µM (inactive) | EC50 [2]: > 67.5 µM (inactive)

COC(=O)C1CCCCN1C(=O)c1cc(COc2cccc3cnccc23)on1 (centres undefined)
IC50 (Galanin receptor type 3): 1.48 µM (active) | EC50 (cells): > 29.9 µM (inactive) | AC50 (INS1): 3.68 µM (active) | IC50 [6]: 7.34 µM (active)

O=C(CSc1nnc(-c2cccs2)n1-c1ccccc1)Nc1ccccc1
IC50 [7]: 11.8 µM (not active) | IC50 [8]: 5.52 µM (active)

Fc1ccc(-n2nnc(-c3cc4ccccc4nc3Cl)n2)cc1
IC50 (Bcl-2-related protein A1 [3]): > 100 µM (not active) | IC50 (Bcl-2-related protein A1 [4]): > 100 µM (not active)

COc1cc2c(cc1OC)C1C(=O)c3ccc4c(c3OC1CO2)CC(C(C)C)O4 (centres undefined)
IC50 (Galanin receptor type 3): 0.0386 µM (active) | AC50 [9]: 5.08 µM (active) | EC50 (cells): > 29.9 µM (inactive) | AC50 [10]: < 0.26 µM (active) | AC50 [11]: 0.614 µM (active) | IC50 [6]: 0.519 µM (active)

C[C@H](CO)N1C[C@H](C)[C@@H](CN(C)Cc2ccc(Cl)c(Cl)c2)Oc2ccc(NC(=O)Nc3ccc(C(F)(F)F)cc3)cc2CC1=O
AC50 (Paired box protein Pax-8): 6.35 µM (active) | AC50 [12]: 11.8 µM (active) | AC50 [13]: 2.62 µM (active) | AC50 [14]: 54.3 µM (active)

Fc1ccc(CSc2nnc(-c3ccccc3)o2)cc1
IC90 [15]: 250 µM (active) | IC90 [16]: 4 µM (active) | IC90 [17]: 4 µM (active)

C/C=C/c1ccc2c(c1)[C@H]1[C@H](CCN1C(=O)c1ccc(F)cc1)[C@H](CO)N2
AC50 [18]: 1.96 µM (active) | AC50 [19]: 2 µM (active) | AC50 [13]: 2.79 µM (active) | AC50 [20]: 2.01 µM (active)

CCN(C[C@@H]1N[C@@H](CO)[C@H]1c1ccc(-c2ccc(F)cc2)cc1)C(=O)CN(C)C
AC50 [12]: 8.36 µM (active) | AC50 [13]: 2.05 µM (active)
